pEC50: −log10 of the molar value.

This experiment has as its target T1, Alkanal monooxygenase alpha chain (Vibrio harveyi, UniProt P07740).
T1 sequence (P07740 whole entry): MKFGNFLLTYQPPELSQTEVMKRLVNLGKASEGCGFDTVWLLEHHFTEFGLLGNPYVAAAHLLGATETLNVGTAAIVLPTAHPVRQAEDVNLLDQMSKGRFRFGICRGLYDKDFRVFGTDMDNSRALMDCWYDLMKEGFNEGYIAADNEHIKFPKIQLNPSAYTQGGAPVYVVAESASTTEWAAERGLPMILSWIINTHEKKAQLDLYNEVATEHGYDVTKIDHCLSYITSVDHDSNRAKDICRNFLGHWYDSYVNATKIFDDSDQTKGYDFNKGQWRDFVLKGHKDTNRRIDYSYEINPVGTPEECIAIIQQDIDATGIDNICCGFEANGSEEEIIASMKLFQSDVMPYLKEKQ
As to the kind of experiment: Vibrio harveyi growth inhibition, confirmation, absorbance, dose retest (AID 2723).
`Cc1cccc(NS(=O)(=O)c2ccc(Oc3ccccc3)cc2)n1` [SMR000071466] gave a negative-log EC50 (pEC50) below 3.80.
The compound `CN(C)S(=O)(=O)c1ccc(NC(=S)NC(=O)Cc2ccccc2)cc1` [N-[[4-(dimethylsulfamoyl)phenyl]carbamothioyl]-2-phenyl-ethanamide] showed a pEC50 below 3.80.
The same measure for `C=Cn1c(C(=O)O)ccc1-c1ccc(CC)cc1`: below 3.80; for `CCc1ccc(S(=O)(=O)Nc2ccc(Br)cn2)cc1` [MLS001211346]: below 3.80; for `Cn1cnc(S(=O)(=O)Nc2ccc(OC(F)(F)F)cc2)c1` [SMR000314513]: below 3.80.
`COc1cc(NC(=O)CN2C(=O)NC(c3ccccc3)(c3ccccc3)C2=O)cc(OC)c1` [MLS001176525]: the pEC50 is below 3.80.
As to `CCCc1ccc(S(=O)(=O)N(C)S(=O)(=O)c2ccc(F)cc2)cc1` [N-(4-fluorophenyl)sulfonyl-N-methyl-4-propylbenzenesulfonamide], the pEC50 is 5.11.

Values taken from BindingDB's records for doi:10.7270/Q22R3Q4F (Broad Institute, 2010).
